The numbers were not newly measured in patent publication US8183227B1, “Compositions, kits and methods for nutrition supplementation” (Chemo S. A. France, priority 2011, dated 2012), which cites them from elsewhere.

For this series the following is noted: intake of about 1000 IU per day, all adults.

For `C=C1CC[C@H](O)C/C1=C/C=C1\CCC[C@]2(C)[C@@H]([C@H](C)CCCC(C)C)CC[C@@H]12` [vitamin D3, cholecalciferol], the “share of the population brought up to the 30 ng/ml serum range for 25-hydroxyvitamin D” value is on record as “at least 50 % of the population”.
